From patent publication US6737383B1, “Herbicidal oxadiazolidines” (priority 1999, dated 2004)

Legend:
blackgrass = assay: Test B pre/postemergence blackgrass; assay type: in vivo, Alopecurus myosuroides
Outline: (§1)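 Test chemicals in a non-phytotoxic solvent mixture with surfactant were sprayed preemergence onto planted seeds and postemergence onto plants 2 to 18 cm tall (1- to 4-leaf stage). After twelve to sixteen days in a greenhouse, injury was visually rated against untreated controls from 0 (no effect) to 10 (complete control).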

cocklebur = assay: Test B pre/postemergence cocklebur; assay type: in vivo, Xanthium strumarium
Outline: as §1

corn = assay: Test B pre/postemergence corn; assay type: in vivo, Zea mays
Outline: as §1

crabgrass = assay: Test B pre/postemergence crabgrass; assay type: in vivo, Digitaria sanguinalis
Outline: as §1

giant foxtail = assay: Test B pre/postemergence giant foxtail; assay type: in vivo, Setaria faberii
Outline: as §1

morningglory = assay: Test B pre/postemergence morningglory; assay type: in vivo, Ipomoea hederacea
Outline: as §1

pigweed = assay: Test B pre/postemergence pigweed; assay type: in vivo, Amaranthus retroflexus
Outline: as §1

rape = assay: Test B pre/postemergence rape; assay type: in vivo, Brassica napus
Outline: as §1

soybean = assay: Test B pre/postemergence soybean; assay type: in vivo, Glycine max
Outline: as §1

sugar beet = assay: Test B pre/postemergence sugar beet; assay type: in vivo, Beta vulgaris
Outline: as §1

velvetleaf = assay: Test B pre/postemergence velvetleaf; assay type: in vivo, Abutilon theophrasti
Outline: as §1

wheat = assay: Test B pre/postemergence wheat; assay type: in vivo, Triticum aestivum
Outline: as §1

purple nutsedge = assay: Test B pre/postemergence purple nutsedge; assay type: in vivo, Cyperus rotundus
Outline: as §1

duck salad = assay: Test B flood test duck salad; assay type: in vivo, Heteranthera limosa; conditions: Rate 125 g/ha; Postemergence section (flood test species); scale 0 to 10, 0 no effect, 10 complete control
Outline: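 Flood test on plants grown to the 2-leaf stage; treated plants kept in greenhouse twelve to sixteen days, then visually rated against controls on a 0 (no effect) to 10 (complete control) scale.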

[1] = Postemergence, Rate 62 g/ha, scale 0 to 10, 0 is no effect, 10 is complete control
[2] = Postemergence, Rate 250 g/ha, scale 0 to 10, 0 no effect, 10 complete control
[3] = Preemergence, Rate 62 g/ha, scale 0 to 10, 0 is no effect, 10 is complete control
[4] = Preemergence, Rate 125 g/ha, scale 0 to 10 (0 no effect, 10 complete control)
[5] = Preemergence, Rate 250 g/ha, scale of 0 to 10 where 0 is no effect and 10 is complete control
[6] = Preemergence, Rate 500 g/ha, scale 0 (no effect) to 10 (complete control)
[7] = Rate 125 g/ha, Postemergence, scale 0 to 10, 0 no effect, 10 complete control
[8] = Rate 500 g/ha, Postemergence, 0 to 10 scale (0 no effect, 10 complete control)

Structure (SMILES): Cc1ccc(N(C(=O)n2oc(=O)n(-c3ccccc3C)c2=O)C(C)C)cc1 [Compound 40]
- Blackgrass plant response rating (blackgrass; [1]): 0
- Blackgrass plant response rating (blackgrass; [2]): 4
- Plant response rating, Blackgrass (blackgrass; [3]): 0
- Plant response rating, Blackgrass (blackgrass; [4]): 0
- Plant response rating, Blackgrass (blackgrass; [5]): 1
- Blackgrass plant response rating (blackgrass; [6]): 6
- Blackgrass plant response rating (blackgrass; [7]): 0
- Blackgrass plant response rating (blackgrass; [8]): 7
- Cocklebur plant response rating (cocklebur; [1]): 0
- Cocklebur plant response rating (cocklebur; [2]): 0
- Plant response rating, Cocklebur (cocklebur; [3]): 0
- Plant response rating, Cocklebur (cocklebur; [4]): 0
- Plant response rating, Cocklebur (cocklebur; [5]): 0
- Cocklebur plant response rating (cocklebur; [6]): 0
- Cocklebur plant response rating (cocklebur; [7]): 0
- Cocklebur plant response rating (cocklebur; [8]): 0
- Corn plant response rating (corn; [1]): 0
- Corn plant response rating (corn; [2]): 0
- Plant response rating, Corn (corn; [3]): 0
- Plant response rating, Corn (corn; [4]): 0
- Plant response rating, Corn (corn; [5]): 0
- Corn plant response rating (corn; [6]): 0
- Corn plant response rating (corn; [7]): 0
- Corn plant response rating (corn; [8]): 0
- Crabgrass plant response rating (crabgrass; [1]): 0
- Crabgrass plant response rating (crabgrass; [2]): 6
- Plant response rating, Crabgrass (crabgrass; [3]): 2
- Plant response rating, Crabgrass (crabgrass; [4]): 4
- Plant response rating, Crabgrass (crabgrass; [5]): 7
- Crabgrass plant response rating (crabgrass; [6]): 10
- Crabgrass plant response rating (crabgrass; [7]): 1
- Crabgrass plant response rating (crabgrass; [8]): 7
- Giant foxtail plant response rating (giant foxtail; [1]): 0
- Giant foxtail plant response rating (giant foxtail; [2]): 1
- Plant response rating, Giant foxtail (giant foxtail; [3]): 9
- Plant response rating, Giant foxtail (giant foxtail; [4]): 9
- Plant response rating, Giant foxtail (giant foxtail; [5]): 10
- Giant foxtail plant response rating (giant foxtail; [6]): 10
- Giant foxtail plant response rating (giant foxtail; [7]): 0
- Giant foxtail plant response rating (giant foxtail; [8]): 3
- Morningglory plant response rating (morningglory; [1]): 3
- Morningglory plant response rating (morningglory; [2]): 6
- Plant response rating, Morningglory (morningglory; [3]): 0
- Plant response rating, Morningglory (morningglory; [4]): 0
- Plant response rating, Morningglory (morningglory; [5]): 0
- Morningglory plant response rating (morningglory; [6]): 0
- Morningglory plant response rating (morningglory; [7]): 6
- Morningglory plant response rating (morningglory; [8]): 7
- Redroot pigweed plant response rating (pigweed; [1]): 0
- Redroot pigweed plant response rating (pigweed; [2]): 2
- Plant response rating, Redroot pigweed (pigweed; [3]): 0
- Plant response rating, Redroot pigweed (pigweed; [4]): 1
- Plant response rating, Redroot pigweed (pigweed; [5]): 4
- Redroot pigweed plant response rating (pigweed; [6]): 6
- Redroot pigweed plant response rating (pigweed; [7]): 1
- Rape plant response rating (rape; [1]): 0
- Rape plant response rating (rape; [2]): 0
- Plant response rating, Rape (rape; [3]): 0
- Plant response rating, Rape (rape; [4]): 0
- Plant response rating, Rape (rape; [5]): 0
- Rape plant response rating (rape; [6]): 0
- Rape plant response rating (rape; [7]): 0
- Rape plant response rating (rape; [8]): 0
- Soybean plant response rating (soybean; [1]): 3
- Soybean plant response rating (soybean; [2]): 4
- Plant response rating, Soybean (soybean; [3]): 0
- Plant response rating, Soybean (soybean; [4]): 0
- Plant response rating, Soybean (soybean; [5]): 0
- Soybean plant response rating (soybean; [6]): 0
- Soybean plant response rating (soybean; [7]): 3
- Sugarbeets plant response rating (sugar beet; [1]): 0
- Sugarbeets plant response rating (sugar beet; [2]): 2
- Plant response rating, Sugarbeets (sugar beet; [3]): 0
- Plant response rating, Sugarbeets (sugar beet; [4]): 0
- Plant response rating, Sugarbeets (sugar beet; [5]): 0
- Sugarbeets plant response rating (sugar beet; [6]): 6
- Sugarbeets plant response rating (sugar beet; [7]): 0
- Velvetleaf plant response rating (velvetleaf; [1]): 0
- Velvetleaf plant response rating (velvetleaf; [2]): 0
- Plant response rating, Velvetleaf (velvetleaf; [3]): 0
- Plant response rating, Velvetleaf (velvetleaf; [4]): 0
- Plant response rating, Velvetleaf (velvetleaf; [5]): 0
- Velvetleaf plant response rating (velvetleaf; [6]): 0
- Velvetleaf plant response rating (velvetleaf; [7]): 0
- Wheat plant response rating (wheat; [1]): 0
- Wheat plant response rating (wheat; [2]): 0
- Plant response rating, Wheat (wheat; [3]): 0
- Plant response rating, Wheat (wheat; [4]): 0
- Plant response rating, Wheat (wheat; [5]): 0
- Wheat plant response rating (wheat; [6]): 0
- Wheat plant response rating (wheat; [7]): 0
- Nutsedge plant response rating (purple nutsedge; [1]): 0
- Nutsedge plant response rating (purple nutsedge; [2]): 0
- Plant response rating, Nutsedge (purple nutsedge; [3]): 0
- Plant response rating, Nutsedge (purple nutsedge; [4]): 0
- Plant response rating, Nutsedge (purple nutsedge; [5]): 0
- Nutsedge plant response rating (purple nutsedge; [6]): 0
- Nutsedge plant response rating (purple nutsedge; [7]): 0
- Nutsedge plant response rating (purple nutsedge; [8]): 0
- Ducksalad plant response rating (duck salad): 0
